# Where two headings read alike, the source gives them in different places.
# Tests used:
# [1] = biological target: human recombinant JAK2 protein (Homo sapiens, UniProt O60674); experiment: JAK2 activity inhibition assay (HTRF kinase detection); format: biochemical; conditions: 2.5 μM ATP substrate solution
# Experimental: The effect of the compounds of the present invention on the activity of JAK2 was assessed by using an in vitro kinase detection assay.
# The enzymatic activity of JAK2 was assessed by detecting the substrate phosphorylation level in a kinase reaction with a homogeneous time-resolved fluorescence (HTRF) kinase detection kit (Cisbio, 62TK0PEC). A reaction buffer contained an enzyme buffer (1×), 5 mM MgCl2, 1 mM DTT and 0.01% Brij35 from the kit; a human recombinant JAK2 protein (Carna Biosciences, 08-045) was diluted to a kinase reaction solution of 0.15 ng/μL with the reaction buffer; a substrate reaction solution contained 2.5 μM ATP and a biotin-labeled tyrosine kinase substrate diluted to 0.25 μM with the reaction buffer; a detection buffer contained 0.1 ng/μL Eu^3+ labeled cage antibody (Cisbio, 61T66KLB) and 12.5 nM streptavidin-labeled XL665 (Cisbio, 610SAXLB) in the reaction buffer; the compound was dissolved to 10 μM in DMSO, followed by a serial 4-fold dilution with DMSO to a minimum concentration of 0.061 nM. Each concentration was further diluted 40-fold with the reaction buffer. To a 384-well assay plate (Corning, 3674) were added 4 μL of the compound solutions having a series of concentrations and 2 μL of JAK2 kinase reaction solutions. After being mixed evenly, the mixtures were incubated at room temperature for 15 minutes, and then 4 μL of the substrate reaction solutions were added. The reaction mixtures were incubated at room temperature for 30 minutes. Then the reaction mixtures were added with 10 μL of detection solutions, mixed evenly, and allowed to stand at room temperature for 30 minutes. An Envision plate reader (Perkin Elmer) was then used to measure the progress of the reaction at wavelengths of 620 nm and 665 nm. The signal value (absorbance at 665 nm/absorbance at 620 nm) was positively correlated with the degree of substrate phosphorylation, therefore the kinase activity of JAK2 was detected. In this assay, the group without JAK2 kinase protein was the 100% inhibition group, and the group with JAK2 kinase protein but without the test compound was the 0% inhibition group. The compound inhibition curve was plotted using XLfit software and the IC50 of its inhibition was calculated.
# [2] = biological target: human recombinant TYK2 protein (Homo sapiens, UniProt P29597); experiment: TYK2 activity inhibition assay (HTRF kinase detection); format: biochemical; conditions: 11.25 μM ATP substrate solution
# Experimental: The effect of the compounds of the present invention on the activity of TYK2 was assessed by using an in vitro kinase detection assay.
# The enzymatic activity of TYK2 was assessed by detecting the substrate phosphorylation level in a kinase reaction with a homogeneous time-resolved fluorescence (HTRF) kinase detection kit (Cisbio, 62TK0PEC). A reaction buffer contained an enzyme buffer (1×), 5 mM MgCl2, 1 mM DTT and 0.01% Brij35 from the kit; a human recombinant TYK2 protein (Carna Biosciences, 08-147) was diluted to a kinase reaction solution of 0.25 ng/μL with the reaction buffer; a substrate reaction solution contained 11.25 μM ATP and a biotin-labeled tyrosine kinase substrate diluted to 0.5 μM with the reaction buffer; a detection buffer contained 0.1 ng/μL Eu^3+ labeled cage antibody (Cisbio, 61T66KLB) and 25 nM streptavidin-labeled XL665 (Cisbio, 610SAXLB) in the reaction buffer; the compound was dissolved to 10 μM in DMSO, followed by a serial 4-fold dilution with DMSO to a minimum concentration of 0.061 nM. Each concentration was further diluted 40-fold with the reaction buffer. To a 384-well assay plate (Corning, 3674) were added 4 μL of the compound solutions having a series of concentrations and 2 μL of kinase reaction solutions. After being mixed evenly, the mixtures were incubated at room temperature for 15 minutes, and then 4 μL of the substrate reaction solutions were added. The reaction mixtures were incubated at room temperature for 40 minutes. Then the reaction mixtures were added with 10 μL of detection solutions, mixed evenly, and allowed to stand at room temperature for 30 minutes. An Envision plate reader (Perkin Elmer) was then used to measure the progress of the reaction at wavelengths of 620 nm and 665 nm. The signal value (absorbance at 665 nm/absorbance at 620 nm) was positively correlated with the degree of substrate phosphorylation, therefore the kinase activity of TYK2 was detected. In this assay, the group without TYK2 kinase protein was the 100% inhibition group, and the group with TYK2 kinase protein but without the test compound was the 0% inhibition group. The compound inhibition curve was plotted using XLfit software and the IC50 of its inhibition was calculated.
# [3] = tested on: IL-12-induced IFN-γ secretion in NK92 cells; experiment: Inhibition of IL-12-induced IFN-γ secretion in NK92 cells (ELISA); format: cell-based; conditions: Homo sapiens, IL-12 stimulation, 24 hours, read-out: IC50 (NK92IL12/IFN-γ)
# Experimental: The effect of the compounds of the present invention on IFN-γ secretion in IL-12-induced NK92 cells was evaluated by an enzyme-linked immunosorbent assay (ELISA).
# The assay principle was generally described below: IL-12R was mainly expressed in activated T-cells, NK cells (NK92 was an NK cell line), DC cells, and B-cells. When binding to IL-12, it activated the JAK2/TYK2 signal transduction pathway within NK cells and activated T lymphocytes, thereby inducing secretion of IFN-γ.
# The compound was dissolved to 2.5 mM in DMSO, followed by a serial 4-fold dilution with DMSO to a minimum concentration of 0.31 μM. Each concentration was further diluted 50-fold with an FBS-free MEMα medium (Thermofisher. 12561-056).
# NK92 cells (Nanjing Cobioer, CBP60980) were cultured in a complete MEMα medium containing 12.5% FBS (Ausbian, VS500T), 12.5% horse serum (Thermofisher, 16050-122), 0.02 mM folic acid (Sigma, F8758), 0.2 mM inositol (Sigma, 17850), 0.55 mM β-mercaptoethanol (Thermofish, 21985-023), 200 U/mL IL-2 (R&D Systems, 202-1L), and 100 U/mL penicillin-streptomycin mixed liquor (ThermoFisher, 15140122). When covering 80-90% of the culture container surface, the cells were dispersed and plated on a 96-well plate (ThermoFisher, 167425) with 100,000 cells per well (80 μL of the complete MEMα medium without IL-2). The 96-well plate was then incubated overnight in a 37° C., 5% CO2 incubator.
# After overnight incubation, 10 μL of the compound and 10 μL of 50 ng/ml IL-12 (R &D Systems, 219-1L) were added to each well and mixed gently, and the 96-well plate was incubated in the 37° C., 5% CO2 incubator for additional 24 hours. The plate was centrifuged at 800 rpm for 10 minutes at room temperature and 50 μL of the supernatant from each well was transferred to another 96-well plate (Sigma, CLS3695) coated with anti-IFN-γ antibody. The amount of IFN-γ secretion was detected following the instruction from the Human IFN-γ DuoSet ELISA assay kit (R & D Systems, DY285B). In this assay, the group in which IL-12 and the test compound were replaced with the MEMα medium was the non-stimulated control group (100% inhibition), and the group with IL-12 and 0.2% DMSO was the stimulated control group (0% inhibition). The compound inhibition curve was plotted using XLfit software and the IC50 of its inhibition was calculated.
# [4] = Pharmacokinetic assay in mice (plasma and colon exposure); format: in vivo; conditions: fed female C57 mice, 25 mg/kg PO, 4 hours after dosing; for concentration at 4 h: mouse
# Experimental: Test compounds were formulated into a 5 mg/mL dosing sample (suspension or solution) in a 20% HP-β-CD vehicle.
# 3 fed female C57 mice were each dosed 5 mL/kg by gavage (PO) at a dose of 25 mg/kg. Blood samples were collected 4 hours after dosing, and then animals were killed by CO2. Colons near the end of the rectum, approximately 4-6 cm in length, were dissected, rinsed with cold saline, blotted dry with absorbent paper, and weighed.
# Concentrations of the test compounds in the plasma and intestinal homogenate sample were quantified by LC-MS/MS using an API-4500 mass spectrometer with a plasma limit of quantitation (LOQ) of 1 ng/mL.
# [5] = colon homogenate, read-out: Colon exposure
# [6] = plasma, LOQ 1 ng/mL, read-out: Plasma exposure
smiles,measurement,setting,value
"O=C(c1ccc(Nc2nc(-c3c(F)cccc3F)n3cc[nH]c(=O)c23)cc1)N1CCOCC1 [Compound 1, 3-(2,6-difluorophenyl)-1-((4-(morpholine-4-carbonyl)phenyl)amino)imidazo[1,5-a]pyrazin-8(7H)-one]",IC50,[1],0.3 nM
same,IC50,[2],0.2 nM
same,IC50,[3],57 nM
same,concentration at 4 h,[4]; [5],5210 ng/g
same,concentration at 4 h,[4]; [6],249 ng/mL
"NC(=O)c1ccc(Nc2nc(-c3c(F)cccc3Cl)n3cc[nH]c(=O)c23)cc1 [Compound 28, 4-((3-(2-chloro-6-fluorophenyl)-8-oxo-7,8-dihydroimidazo[1,5-a]pyrazin-1-yl)amino)benzamide]",IC50,[1],0.6 nM
same,IC50,[2],0.03 nM
same,IC50,[3],38 nM
same,concentration at 4 h,[4]; [5],2850 ng/g
same,concentration at 4 h,[4]; [6],15 ng/mL
"CN1CCN(C(=O)c2ccc(Nc3nc(-c4c(F)cccc4F)n4cc[nH]c(=O)c34)cc2)CC1 [Compound 29, 3-(2,6-difluorophenyl)-1-((4-(4-methylpiperazine-1-carbonyl)phenyl)amino)imidazo[1,5-a]pyrazin-8(7H)-one]",IC50,[1],0.7 nM
same,IC50,[2],0.1 nM
same,IC50,[3],75 nM
same,concentration at 4 h,[4]; [5],3920 ng/g
same,concentration at 4 h,[4]; [6],75 ng/mL
"O=C(c1ccc(Nc2nc(-c3c(F)cccc3F)n3cc[nH]c(=O)c23)cc1)N1CCNCC1 [Compound 30, 3-(2,6-difluorophenyl)-1-((4-(piperazine-1-carbonyl)phenyl)amino)imidazo[1,5-a]pyrazin-8(7H)-one]",IC50,[1],0.8 nM
same,IC50,[2],0.1 nM
same,IC50,[3],318 nM
same,Plasma exposure,"[4]; plasma, LOQ 1 ng/mL",BLOQ
same,concentration at 4 h,[4]; [5],12200 ng/g
"CC(C)(C(N)=O)c1ccc(Nc2nc(-c3c(F)cccc3F)n3cc[nH]c(=O)c23)cc1 [Compound 34, 2-(4-((3-(2,6-difluorophenyl)-8-oxo-7,8-dihydroimidazo[1,5-a]pyrazin-1-yl)amino)phenyl)-2-methylpropanamide]",IC50,[1],0.6 nM
same,IC50,[2],0.1 nM
same,IC50,[3],65 nM
same,concentration at 4 h,[4]; [5],2700 ng/g
same,concentration at 4 h,[4]; [6],50 ng/mL
"CN1CCN(C(=O)C(C)(C)c2ccc(Nc3nc(-c4c(F)cccc4F)n4cc[nH]c(=O)c34)cc2)CC1 [Compound 35, 3-(2,6-difluorophenyl)-1-((4-(2-methyl-1-(4-methylpiperazin-1-yl)-1-oxopropan-2-yl)phenyl)amino)imidazo[1,5-a]pyrazin-8(7H)-one]",IC50,[1],0.6 nM
same,IC50,[2],0.4 nM
same,IC50,[3],191 nM
"CC(C)(C(=O)N1CCNCC1)c1ccc(Nc2nc(-c3c(F)cccc3F)n3cc[nH]c(=O)c23)cc1 [Compound 36, 3-(2,6-difluorophenyl)-1-((4-(2-methyl-1-oxo-1-(piperazin-1-yl)propan-2-yl)phenyl)amino)imidazo[1,5-a]pyrazin-8(7H)-one]",IC50,[1],0.6 nM
same,IC50,[2],0.4 nM
same,IC50,[3],3480 nM
same,concentration at 4 h,[4]; [5],5090 ng/g
same,concentration at 4 h,[4]; [6],18 ng/mL
"CN1CCN(C(=O)C(C)(C)c2ccc(Nc3nc(-c4c(F)cccc4Cl)n4cc[nH]c(=O)c34)cc2)CC1 [Compound 37, 3-(2-chloro-6-fluorophenyl)-1-((4-(2-methyl-1-(4-methylpiperazin-1-yl)-1-oxopropan-2-yl)phenyl)amino)imidazo[1,5-a]pyrazin-8(7H)-one]",IC50,[1],0.6 nM
same,IC50,[2],0.2 nM
same,IC50,[3],268 nM
"CC(C)(C(=O)N1CCNCC1)c1ccc(Nc2nc(-c3c(F)cccc3Cl)n3cc[nH]c(=O)c23)cc1 [Compound 38, 3-(2-chloro-6-fluorophenyl)-1-((4-(2-methyl-1-oxo-1-(piperazin-1-yl)propan-2-yl)phenyl)amino)imidazo[1,5-a]pyrazin-8(7H)-one]",IC50,[1],0.5 nM
same,IC50,[2],0.4 nM
same,IC50,[3],2850 nM
"O=C(O)c1ccc(Nc2nc(-c3c(F)cccc3F)n3cc[nH]c(=O)c23)cc1 [Compound 39, 4-((3-(2,6-difluorophenyl)-8-oxo-7,8-dihydroimidazo[1,5-a]pyrazin-1-yl)amino)benzoic acid]",IC50,[1],4.5 nM
same,IC50,[2],0.5 nM
same,IC50,[3],4100 nM
"CC(C)(C(=O)O)c1ccc(Nc2nc(-c3c(F)cccc3F)n3cc[nH]c(=O)c23)cc1 [Compound 40, 2-(4-((3-(2,6-difluorophenyl)-8-oxo-7,8-dihydroimidazo[1,5-a]pyrazin-1-yl)amino)phenyl)-2-methylpropanoic acid]",IC50,[1],2.8 nM
same,IC50,[2],0.4 nM
same,IC50,[3],406 nM
